What was measured:
Type in all cases: cell-based, human
[1] = system: U2OS cells stably expressing HMGB1-GFP; assay: HMGB1 release (loss of nuclear HMGB1-GFP fluorescence); details: lurbinectedin 1 nM to 1 μM, MTX 1 and 3 μM, medium to late time points
Experimental: (§1) (a) Human osteosarcoma U2OS (a), human breast cancer HCC70 (b) human colon cancer HT29 cells (c) and murine methylcholantrene-induced fibrosarcoma MCA205 cells (d) were treated with lurbinectedin (Lurbi, 1 nM, 10 nM, 100 nM and 1 μM) for the indicated times. Subsequently, the cells were stained with 1 μM Hoechst 33342 and 1 μM propidium iodide and assessed for the loss of viability by automated image acquisition. Images were segmented, cellular debris was excluded and the number of cells with normal nuclear morphology was enumerated. Cells stably expressing CALR-GFP were treated as above. Following the cells were fixed with 3.7% of PFA, stained with 1 μM Hoechst 33342 and assessed by automated image acquisition. Images were segmented, cellular debris was excluded and CALR-GFP granularity (a surrogate marker of CALR exposure) was evaluated in the cytoplasmic region of cells with normal nuclear morphology. Wild type cells were treated as above and then assessed for cytoplasmic quinacrine granularity (after staining with the ATP-sensitive dye quinacrine together with Hoechst 33342) by automated image acquisition, segmentation and analysis. Cells stably expressing HMGB1-GFP were treated as above and then assessed for nuclear HMGB1-GFP fluorescence intensity. The cells were fixed and stained with Hoechst 33342 and images were acquired, segmented and analyzed. […]

U2OS WT cells = assay: Cytoplasmic quinacrine granularity (intracellular ATP, indicator of ATP release); details: lurbinectedin 1 nM to 1 μM, MTX 1 and 3 μM, dose-dependent, decreased over time, vs untreated controls
Experimental: as §1

[2] = system: U2OS cells stably expressing CALR-GFP; assay: CALR-GFP granularity (surrogate marker of CALR exposure); details: lurbinectedin 1 nM to 1 μM, MTX 1 and 3 μM, 4-32 hours, vs untreated controls
Experimental: as §1

[3] = system: U2OS biosensor cells expressing GFP under the MX1 promoter; assay: Type I IFN response (MX1-GFP biosensor cells treated with supernatant); details: supernatant of treated U2OS cells after 48 hours fresh media; biosensor cells 48 hours; throughout all time points
Experimental: In a systematic screening campaign, the capacity of lurbinectedin to induce immunogenic cell death in cancer cells was assessed in human osteosarcoma U2OS cells stably expressing fluorescent biosensors for the detection of CALR-relocation (as a surrogate marker for CALR surface exposure), HMGB1 release and Type I IFN responses together with U2OS WT cells stained with the ATP-sensitive dye quinacrine. […] The induction of cell death was evaluated based on changes in the nuclear morphology visualized by means of the DNA intercalating dye Hoechst 33342.

## O=C1c2c(O)ccc(O)c2C(=O)c2c(NCCNCCO)ccc(NCCNCCO)c21 [MTX, mitoxantrone]
[1]
  nuclear GFP signal (HMGB1-GFP): significant decrease
U2OS WT cells
  ATP signal (cytoplasmic quinacrine granularity): significant decrease
[2]
  CALR-granularity: time- and dose-dependent increase
[3]
  de novo GFP signal intensity (type 1 IFN response): significant increase

Source: US20250295656A1, “COMBINATION OF LURBINECTEDIN AND IMMUNE CHECKPOINT INHIBITORS” (priority 2020, published 2025)
